The results in this text go back to patent US20230117034A1, “PYRAZOLOTRIAZINES” (Bayer Aktiengesellschaft, priority 2019, published 2023).

A value given as a limit tells only on which side of the number the result lay.

In this experiment the target is T1, CDK9/CycT1 (Homo sapiens, UniProt P50750).
T1 construct: Recombinant full-length His-tagged human CDK9 and CycT1; purchased Life Technologies PV4131; host or cells: insect cells
T1 sequence (P50750 whole entry): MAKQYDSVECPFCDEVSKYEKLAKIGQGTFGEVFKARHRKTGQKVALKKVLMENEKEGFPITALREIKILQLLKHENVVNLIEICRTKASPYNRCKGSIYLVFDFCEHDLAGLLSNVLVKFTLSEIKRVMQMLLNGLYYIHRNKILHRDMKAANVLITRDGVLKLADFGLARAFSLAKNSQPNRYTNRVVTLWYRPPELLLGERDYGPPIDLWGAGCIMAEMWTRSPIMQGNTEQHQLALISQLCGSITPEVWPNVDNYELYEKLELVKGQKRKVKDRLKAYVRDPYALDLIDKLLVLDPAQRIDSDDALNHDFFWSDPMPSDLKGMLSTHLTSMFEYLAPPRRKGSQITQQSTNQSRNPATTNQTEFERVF
T1 sequence (O60563 whole entry partner): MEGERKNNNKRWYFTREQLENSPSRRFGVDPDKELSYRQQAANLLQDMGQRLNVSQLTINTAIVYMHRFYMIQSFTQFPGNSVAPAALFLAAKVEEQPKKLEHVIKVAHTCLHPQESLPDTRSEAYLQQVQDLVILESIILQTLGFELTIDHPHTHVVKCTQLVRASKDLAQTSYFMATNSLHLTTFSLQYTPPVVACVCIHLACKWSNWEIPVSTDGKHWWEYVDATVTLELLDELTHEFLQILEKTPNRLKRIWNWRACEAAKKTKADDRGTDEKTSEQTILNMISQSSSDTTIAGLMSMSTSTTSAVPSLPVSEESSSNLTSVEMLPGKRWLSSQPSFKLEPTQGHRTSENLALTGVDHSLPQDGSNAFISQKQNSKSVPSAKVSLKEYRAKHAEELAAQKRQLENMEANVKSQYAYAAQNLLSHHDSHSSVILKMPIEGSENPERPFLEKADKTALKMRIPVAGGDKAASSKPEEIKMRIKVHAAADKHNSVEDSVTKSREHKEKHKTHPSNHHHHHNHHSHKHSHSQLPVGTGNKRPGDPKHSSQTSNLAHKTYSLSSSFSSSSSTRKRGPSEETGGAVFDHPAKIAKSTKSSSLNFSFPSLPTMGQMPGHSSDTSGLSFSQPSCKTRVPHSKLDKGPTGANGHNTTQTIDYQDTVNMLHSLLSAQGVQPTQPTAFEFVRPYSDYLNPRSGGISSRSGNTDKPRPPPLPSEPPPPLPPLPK
Put plainly: CDK9/CycT1 high ATP kinase assay (TR-FRET, 2 mM ATP). The note with it: 2 mM ATP (high ATP); median; read-out: CDK9/CyclinT1, 2 mM ATP (high ATP), IC50 (median). It is filed as biochemical. The protocol: CDK9/CycT1-inhibitory activity of compounds of the present invention at a high ATP concentration after preincubation of enzyme and test compounds was quantified employing the CDK9/CycT1 TR-FRET assay as described in the following paragraphs.
Recombinant full-length His-tagged human CDK9 and CycT1, expressed in insect cells and purified by Ni-NTA affinity chromatography, were purchased from Life Technologies (Cat. No PV4131). As substrate for the kinase reaction biotinylated peptide biotin-Ttds-[…] (C-terminus in amide form) was used which can be purchased e.g. form the company JERINI peptide technologies (Berlin, Germany).
For the assay 50 nanoL of a 100 fold concentrated solution of the test compound in DMSO was pipetted into either a black low volume 384 well microtiter plate or a black 1536 well microtiter plate (both Greiner Bio-One, Frickenhausen, Germany), 2 microL of a solution of CDK9/CycT1 in aqueous assay buffer [50 millimol/L Tris/HCl pH 8.0, 10 millimol/L MgCl2, 1.0 millimol/L dithiothreitol, 0.1 millimol/L sodium ortho-vanadate, 0.01% (v/v) Nonidet-P40 (Sigma)] were added and the mixture was incubated for 15 min at 22° C. to allow pre-binding of the test compounds to the enzyme before the start of the kinase reaction. […] The concentration of CDK9/CycT1 was adjusted depending of the activity of the enzyme lot and was chosen appropriate to have the assay in the linear range, typical concentrations were in the range of 0.5 microg/ml.
The resulting mixture was incubated 1 h at 22° C. to allow the formation of complex between the phosphorylated biotinylated peptide and the detection reagents. Subsequently the amount of phosphorylated substrate was evaluated by measurement of the resonance energy transfer from the Eu-chelate to the streptavidine-XL. Therefore, the fluorescence emissions at 620 nm and 665 nm after excitation at 350 nm was measured in a TR-FRET reader, e.g. a Pherastar (BMG Labtechnologies, Offenburg, Germany) or a Viewlux (Perkin-Elmer). The ratio of the emissions at 665 nm and at […] was taken as the measure for the amount of phosphorylated substrate.
Consider `CC(C)c1cnn2c(NCc3nc4ccccc4[nH]3)nc(N(C)CC(C)(C)O)nc12` [Example 5, 1-{[4-{[(1H-benzimidazol-2-yl)methyl]amino}-8-(propan-2-yl)pyrazolo[1,5-a][1,3,5]triazin-2-yl](methyl)amino}-2-methylpropan-2-ol], for which the IC50 is over 20 µM.

For the compound `CC(=O)NCCCc1cccc2[nH]c(CNc3nc(N4CCOCC4)nc4c(Br)cnn34)nc12.O=CO` [Example 115, formic acid-N-{3-[2-({[8-bromo-2-(morpholin-4-yl)pyrazolo[1,5-a][1,3,5]triazin-4-yl]amino}methyl)-1H-benzimidazol-4-yl]propyl}acetamide (1/1)], the IC50 is over 20 µM.

Consider `Fc1ccccc1-c1cnn2c(NCc3nc4ccccc4[nH]3)nc(N3CCOCC3)nc12` [Example 95, N-[(1H-benzimidazol-2-yl)methyl]-8-(2-fluorophenyl)-2-(morpholin-4-yl)pyrazolo[1,5-a][1,3,5]triazin-4-amine], for which the IC50 is over 20 µM.

Turning to `COc1ccc2[nH]c(CNc3nc(N4C[C@@H](C)O[C@@H](C)C4)nc4c(Br)cnn34)nc2c1` [Example 124, 8-bromo-2-[(2R, 6S)-2,6-dimethylmorpholin-4-yl]-N-[(5-methoxy-1H-benzimidazol-2-yl)methyl]pyrazolo[1,5-a][1,3,5]triazin-4-amine], the IC50 amounted to 6.1 µM.

Consider `Brc1cnn2c(NCc3nc4ccccc4[nH]3)nc(N3CCN4CCC[C@H]4C3)nc12` [Example 148, N-[(1H-benzimidazol-2-yl)methyl]-8-bromo-2-[(8aS)-hexahydropyrrolo[1,2-a]pyrazin-2 (1 H)-yl]pyrazolo[1,5-a][1,3,5]triazin-4-amine], for which the IC50 was over 20 µM.

On to `C[C@@H]1CN(c2nc(NCc3nnc(-c4ccccc4)[nH]3)n3ncc(Br)c3n2)C[C@H](C)N1C` [Example 125, 8-bromo-N-[(5-phenyl-4H-1,2,4-triazol-3-yl)methyl]-2-[(3R,5S)-3,4,5-trimethylpiperazin-1-yl]pyrazolo[1,5-a][1,3,5]triazin-4-amine], for which the IC50 was 3.79 µM.

`Brc1cnn2c(NCc3nc4ccccc4[nH]3)nc(N3CCOCC3C3CC3)nc12` (centres unmarked) [Example 117, N-(1H-benzimidazol-2-ylmethyl)-8-bromo-2-(3-cyclopropylmorpholin-4-yl)pyrazolo[1,5-a][1,3,5]triazin-4-amine]: the IC50 was over 20 µM.

For `Brc1cnn2c(NCc3nnc(-c4ccccc4)[nH]3)nc(N3C[C@@H]4C[C@H]3CO4)nc12` [Example 120, 8-bromo-2-[(1S,4S)-2-oxa-5-azabicyclo[2.2.1]heptan-5-yl]-N-[(5-phenyl-4H-1,2,4-triazol-3-yl)methyl]pyrazolo[1,5-a][1,3,5]triazin-4-amine], the IC50 turned out to be 10.4 µM.

Consider `c1ccc(-c2cnn3c(NCc4nc5ccccc5[nH]4)nc(N4CCOCC4)nc23)cc1` [Example 104, N-[(1H-benzimidazol-2-yl)methyl]-2-(morpholin-4-yl)-8-phenylpyrazolo[1,5-a][1,3,5]triazin-4-amine], for which the IC50 was over 20 µM.

`C[C@H]1CN(c2nc(NCc3nnc(-c4ccccc4)[nH]3)n3ncc(Br)c3n2)CCN1C.O=CO` [Example 122, 8-bromo-2-[(3S)-3,4-dimethylpiperazin-1-yl]-N-[(5-phenyl-4H-1,2,4-triazol-3-yl)methyl]pyrazolo[1,5-a][1,3,5]triazin-4-amine formate]: the IC50 stood at 4.26 µM.

For `c1ccc2[nH]c(CNc3nc(N4CCOCC4)nc4c(-c5ccncc5)cnn34)nc2c1` [Example 111, N-[(1H-benzimidazol-2-yl)methyl]-2-(morpholin-4-yl)-8-(pyridin-4-yl)pyrazolo[1,5-a][1,3,5]triazin-4-amine hydrogen chloride (1/1)], the IC50 is over 1.63 µM.

For `NCCc1ccc2[nH]c(CNc3nc(N4CCOCC4)nc4c(Br)cnn34)nc2c1.O=CO` [Example 113, formic acid-N-{[5-(2-aminoethyl)-1H-benzimidazol-2-yl]methyl}-8-bromo-2-(morpholin-4-yl)pyrazolo[1,5-a][1,3,5]triazin-4-amine (1/1)], the IC50 is over 18.9 µM.

With `Fc1cc(-c2nnc(CNc3nc(N4CCOCC4)nc4c(Br)cnn34)[nH]2)cc(F)c1F` [Example 100, 8-bromo-2-(morpholin-4-yl)-N-{[5-(3,4,5-trifluorophenyl)-4H-1,2,4-triazol-3-yl]methyl}pyrazolo[1,5-a][1,3,5]triazin-4-amine], the IC50 was determined as 0.82 µM.

For the compound `Clc1cccc(-c2cnn3c(NCc4nc5ccccc5[nH]4)nc(N4CCOCC4)nc23)c1` [Example 107, N-[(1H-benzimidazol-2-yl)methyl]-8-(3-chlorophenyl)-2-(morpholin-4-yl)pyrazolo[1,5-a][1,3,5]triazin-4-amine], the IC50 was over 20 µM.

For the compound `C[C@@H]1CN(c2nc(NCc3nc4c(F)cccc4[nH]3)n3ncc(Br)c3n2)C[C@H](C)O1` [Example 109, 8-bromo-2-[(2R,6S)-2,6-dimethylmorpholin-4-yl]-N-[(4-fluoro-1H-benzimidazol-2-yl)methyl]pyrazolo[1,5-a][1,3,5]triazin-4-amine], the IC50 was determined as 1.79 µM.

For `CC1(C)CN(c2nc(NCc3nnc(-c4ccccc4)[nH]3)n3ncc(C4CC4)c3n2)CCO1` [Example 94, 8-cyclopropyl-2-(2,2-dimethylmorpholin-4-yl)-N-[(5-phenyl-4H-1,2,4-triazol-3-yl)methyl]pyrazolo[1,5-a][1,3,5]triazin-4-amine], the IC50 stood at 12.8 µM.

In the case of `Fc1ccc2[nH]c(CNc3nc(N4CCOCC4)nc4c(Br)cnn34)nc2c1` [Example 101, 8-bromo-N-[(5-fluoro-1H-benzimidazol-2-yl)methyl]-2-(morpholin-4-yl)pyrazolo[1,5-a][1,3,5]triazin-4-amine], the IC50 is over 20 µM.

Regarding `Clc1ccccc1-c1cnc(CNc2nc(N3CCOCC3)nc3c(Br)cnn23)[nH]1` [Example 96, 8-bromo-N-{[5-(2-chlorophenyl)-1H-imidazol-2-yl]methyl}-2-(morpholin-4-yl)pyrazolo[1,5-a][1,3,5]triazin-4-amine], the IC50 turned out to be 9.3 µM.

Turning to `Fc1ccc(-c2cnn3c(NCc4nc5ccccc5[nH]4)nc(N4CCOCC4)nc23)cc1` [Example 106, N-[(1H-benzimidazol-2-yl)methyl]-8-(4-fluorophenyl)-2-(morpholin-4-yl)pyrazolo[1,5-a][1,3,5]triazin-4-amine], the IC50 was over 20 µM.

In the case of `Brc1cnn2c(NCc3nnc(-c4ccccc4)[nH]3)nc(N3CCNCC3)nc12.O=CO` [Example 119, 8-bromo-N-[(5-phenyl-4H-1,2,4-triazol-3-yl)methyl]-2-piperazin-1-yl-pyrazolo[1,5-a][1,3,5]triazin-4-amine formate], the IC50 stood at 6.21 µM.

For the compound `NCCCc1cccc2[nH]c(CNc3nc(N4CCOCC4)nc4c(Br)cnn34)nc12.O=CO` [Example 114, formic acid-N-{[4-(3-aminopropyl)-1H-benzimidazol-2-yl]methyl}-8-bromo-2-(morpholin-4-yl)pyrazolo[1,5-a][1,3,5]triazin-4-amine (1/1)], the IC50 is over 20 µM.

Regarding `CC(C)c1cnn2c(NCc3nc4ccccc4[nH]3)nc(N3CCOC[C@H]3C)nc12` [Example 7, N-[(1H-benzimidazol-2-yl)methyl]-2-[(3R)-3-methylmorpholin-4-yl]-8-(propan-2-yl)pyrazolo[1,5-a][1,3,5]triazin-4-amine], the IC50 was over 20 µM.

For `Brc1cnn2c(NCc3nc4ccccc4[nH]3)nc(N3C[C@@H]4C[C@H]3CO4)nc12` [Example 103, N-[(1H-benzimidazol-2-yl)methyl]-8-bromo-2-[(1S,4S)-2-oxa-5-azabicyclo[2.2.1]heptan-5-yl]pyrazolo[1,5-a][1,3,5]triazin-4-amine], the IC50 is over 20 µM.

On to `Brc1cnn2c(NCc3nc4ccccc4[nH]3)nc(N3C[C@H]4C[C@@H]3CO4)nc12` [Example 102, N-[(1H-benzimidazol-2-yl)methyl]-8-bromo-2-[(1R,4R)-2-oxa-5-azabicyclo[2.2.1]heptan-5-yl]pyrazolo[1,5-a][1,3,5]triazin-4-amine], for which the IC50 was over 20 µM.

In the case of `CN1CCN(c2nc(NCc3nnc(-c4ccccc4)[nH]3)n3ncc(Br)c3n2)CC1=O` [Example 121, 4-(8-bromo-4-{[(5-phenyl-4H-1,2,4-triazol-3-yl)methyl]amino}pyrazolo[1,5-a][1,3,5]triazin-2-yl)-1-methylpiperazin-2-one], the IC50 came to 10.1 µM.

As for `Cc1ccc(-c2nnc(CNc3nc(N4CCOCC4)nc4c(Br)cnn34)[nH]2)cc1F` [Example 98, 8-bromo-N-{[5-(3-fluoro-4-methylphenyl)-4H-1,2,4-triazol-3-yl]methyl}-2-(morpholin-4-yl)pyrazolo[1,5-a][1,3,5]triazin-4-amine], the IC50 was determined as 0.953 µM.
